From the NIST ThermoML archive (doi:10.1016/j.fluid.2015.04.017)

Assay: refractive index (Na D-line) (dimensionless); xn = mol fraction of the nth substance listed
Details: 101 kPa, Liquid, Standard Abbe refractometry

CCOC(=O)C(C)O (stereo not drawn) [DL-ethyl lactate] + CN1CCCC1=O
refractive index
Details	x1 = 0.0999	x1 = 0.2	x1 = 0.3001	x1 = 0.4	x1 = 0.4997	x1 = 0.6	x1 = 0.7002	x1 = 0.7999	x1 = 0.8997	x1 = 1
288.15 K	1.46662	1.46071	1.45507	1.44952	1.44392	1.43817	1.43232	1.42648	1.42076	1.41537
293.15 K	1.46449	1.45857	1.4529	1.44734	1.44172	1.43597	1.43014	1.4243	1.41855	1.41307
298.15 K	1.46235	1.45645	1.45078	1.4452	1.43956	1.4338	1.42795	1.42209	1.41631	1.41076
303.15 K	1.46021	1.45431	1.44863	1.44302	1.43738	1.43161	1.42575	1.41988	1.41406	1.40843
308.15 K	1.45809	1.45218	1.44646	1.44084	1.43516	1.42939	1.42354	1.41768	1.41183	1.4061
313.15 K	1.45594	1.45005	1.44428	1.43859	1.43288	1.4271	1.42126	1.41542	1.40957	1.40374
318.15 K	1.45386	1.44796	1.44218	1.43648	1.43073	1.4249	1.41902	1.41312	1.40722	1.40136
323.15 K	1.45178	1.44586	1.44006	1.43431	1.42854	1.42269	1.41679	1.41086	1.40492	1.39898

CCOC(=O)C(C)O (stereo not drawn) [DL-ethyl lactate] + Cc1ccccc1
refractive index
Details	x1 = 0.1001	x1 = 0.2001	x1 = 0.3	x1 = 0.4	x1 = 0.4998	x1 = 0.6001	x1 = 0.7	x1 = 0.7999	x1 = 0.9	x1 = 1
288.15 K	1.48891	1.47943	1.47043	1.46159	1.45318	1.44507	1.43735	1.42997	1.42267	1.41537
293.15 K	1.48604	1.47659	1.46764	1.45886	1.45051	1.44249	1.43485	1.42751	1.42032	1.41307
298.15 K	1.48316	1.47373	1.46482	1.45613	1.44784	1.43988	1.43231	1.42508	1.41794	1.41076
303.15 K	1.4803	1.47091	1.46199	1.45336	1.44515	1.43728	1.4298	1.42263	1.41555	1.40843
308.15 K	1.47745	1.46812	1.45914	1.45069	1.44254	1.43474	1.42731	1.42018	1.41313	1.4061
313.15 K	1.47462	1.46532	1.45628	1.44801	1.4399	1.43218	1.4248	1.41773	1.4107	1.40374
318.15 K	1.47184	1.46262	1.45368	1.44558	1.4376	1.42987	1.42243	1.41531	1.40819	1.40136
323.15 K	1.46909	1.45995	1.45131	1.44313	1.43523	1.42752	1.42006	1.41291	1.40578	1.39898

CCOC(=O)C(C)O (stereo not drawn) [DL-ethyl lactate] + CCC(C)=O
refractive index
Details	x1 = 0.0999	x1 = 0.1999	x1 = 0.3001	x1 = 0.4001	x1 = 0.5	x1 = 0.5998	x1 = 0.6999	x1 = 0.8	x1 = 0.9001	x1 = 1
288.15 K	1.3864	1.39058	1.39458	1.39808	1.40142	1.40472	1.40745	1.41049	1.41285	1.41571
293.15 K	1.38393	1.38819	1.39209	1.39574	1.39914	1.40234	1.40537	1.40818	1.41078	1.41307
298.15 K	1.38138	1.38566	1.38959	1.3933	1.39673	1.39997	1.40302	1.40585	1.40846	1.41076
303.15 K	1.37882	1.38314	1.38712	1.39082	1.39428	1.39754	1.40061	1.40346	1.4061	1.40843
308.15 K	1.37622	1.38055	1.38457	1.38833	1.39183	1.39511	1.39819	1.40105	1.40371	1.4061
313.15 K	1.37361	1.37791	1.38199	1.38577	1.38931	1.39263	1.39575	1.39864	1.40133	1.40374
318.15 K	1.37092	1.37524	1.37932	1.38316	1.38671	1.39001	1.39312	1.396	1.39886	1.40136
323.15 K	1.36811	1.3724	1.3765	1.38033	1.38393	1.38737	1.39051	1.39348	1.39642	1.39898
